Here are results for 69 compounds from the CATMoS acute toxicity set (Mansouri et al. 2021).

Structures are written as SMILES.

The nature of this series: GHS categories as the set defines them, by LD50: 1 up to 5, 2 up to 50, 3 up to 300, 4 up to 2000, 5 above 2000 mg/kg. As to conditions: rat; in vivo; po. The source says: […]The data set underlying the modeling effort for this project was initially compiled by NICEATM and U.S. EPA’s CCTE. Briefly, LD50 data were collected from rat acute oral systemic toxicity tests, including limit tests, ranges/confidence intervals, and discrete LD50 values. The full data set included 21,200 LD50 entries for 15,688 substances. […] Data were reviewed to ensure that LD50 values with obvious errors in the extracted data such as unit conversion errors (e.g., comma and decimal separator misplacements) were either fixed or removed. After this review, 16,209 LD50 values remained. Many of the chemicals represented had multiple LD50 entries, requiring that a single representative value per Chemical Abstracts Service Registry Number (CASRN) identifier be defined to facilitate modeling efforts. Based on ATWG feedback and to define the representative LD50 as a protective value while accounting for the distribution across multiple LD50s, the median of the lowest quartile was computed using only discrete LD50 values (omitting limit test data and range and confidence interval data). A detailed summary of the data compilation is available online on the NICEATM webpage dedicated to the collaborative modeling project (NTP 2020).
[…][…] For categorical designations, limit test and range/confidence interval LD50 data were integrated wherever possible. As such, the number of chemicals with end point values/calls varies across the modeling end points (Table 3) based on whether chemicals had representative LD50 values and/or other data. If a chemical had both, the representative value was used to determine categorical calls rather than limit test data. Some data were useable only for certain end points and categories depending on the thresholds. For example, ranges that spanned multiple hazard categories were considered only for the binary (very toxic/nontoxic) end points and omitted from rendering a determination for hazard category assignment.
[…]The final data set comprising 11,992 chemicals was split into training and evaluation sets […], respectively. This process was performed semirandomly by ordering chemicals based on the five end points (categorical and continuous LD50 values) and partitioning every fourth record into the evaluation set accordingly. This approach was taken to ensure an equivalent distribution of the LD50 values and the different hazard categories between the training and the evaluation sets without supervised sampling of the chemicals based on structures (Figure 1A). The sources of the chemical structures were also kept equivalent between the two sets, with chemical structures obtained from DSSTox, being the highest quality, representing over 75% of each set (Figure 1B).
In the case of `CC(C)c1cc(C(C)C)c([N+](=O)[O-])c(C(C)C)c1[N+](=O)[O-]`, the GHS category was 5.

In the case of `CC(C)=CCCC(C)=CC1OCCO1`, the GHS category was 5.

`CCCc1c(Cc2ccc(-c3ncccc3-c3nn[nH]n3)cc2)c(=O)nc2nc[nH]n12`: the GHS category is reported as 4.

For the compound `COc1c2ccoc2cc2oc(=O)ccc12`, the GHS category was 5.

Compound `C[C@H]1[C@H](NC(=O)C(=NOC(C)(C)C(=O)O)c2csc(N)n2)C(=O)N1S(=O)(=O)O` had a GHS category of 5.

In the case of `CC1=C(C(=O)O)N2C(=O)[C@@H](NC(=O)[C@H](N)c3ccc(O)cc3)[C@H]2SC1`, the GHS category is on record as 5.

`CCCCCCCCCCC=O` had a GHS category of 5.

As for `Nc1nc2c(ncn2[C@@H]2O[C@H](COP(=O)(O)O)[C@@H](O)[C@H]2O)c(=O)[nH]1`, the GHS category was 5.

For `Nc1ccc(C(=O)c2ccc(Cl)cc2)cc1O`, the GHS category is reported as 5.

In turn, `CC(C)OC(=O)C=Cc1ccccc1` showed a GHS category of 5.

The compound `CCOC(=O)c1cn(C2CC2)c2cc(F)c(F)cc2c1=O` showed a GHS category of 5.

`CNC(=O)C(=NNc1ccccc1)C(C)=O` registered a GHS category of 5.

`CC(=O)[C@H]1CC[C@H]2[C@@H]3C=CC4=CC(=O)CC[C@@]4(C)[C@@H]3CC[C@]12C` registered a GHS category of 5.

`CCCCc1oc2ccc([N+](=O)[O-])cc2c1C(=O)c1ccc(O)cc1` showed a GHS category of 5.

As for `CC(=O)N1CCSC1C(=O)Oc1c(C)ncc(CO)c1CO` (centres undefined), the GHS category is listed as 5.

With `CNC(=O)C(=NNc1ccc(Cl)c(Cl)c1)C(C)=O`, the GHS category amounted to 5.

With `O=C1CCc2c(OCC(O)CN3CCC(Cc4ccccc4)CC3)cccc2N1Cc1ccccc1` (centres undefined), the GHS category amounted to 4.

Compound `CC(C)CC(C)c1ccccc1N` (centres undefined) came in with a GHS category of 5.

In turn, `O=S(=O)(O)c1ccc(/N=N/c2c(O)ccc3cc(S(=O)(=O)O)ccc23)cc1` gave a GHS category of 5.

For `CO/C=C(/C(=O)OC)c1ccccc1COc1cccc(C(F)(F)F)n1`, the GHS category was 5.

As to `CC(C)(C)C1CCC(C2=C(O)c3ccccc3C(=O)C2=O)CC1` (centres undefined), the GHS category was determined as 5.

As for `Brc1cc(Br)c(Oc2nc(Oc3c(Br)cc(Br)cc3Br)nc(Oc3c(Br)cc(Br)cc3Br)n2)c(Br)c1`, the GHS category amounted to 5.

`O=C(O)COc1ccc(Cl)cc1CO` showed a GHS category of 5.

With `N#C[Se]Cc1ccc(C[Se]C#N)cc1`, the GHS category is recorded as 4.

The compound `CCCCC/C=C\CCC(CCCCCCCC(=O)O)C(CCCCCCCC)CCCCCCCCC(=O)O` (centres undefined) came in with a GHS category of 5.

On to `CCCC(=O)Nc1ccc(Cc2ccccn2)c([N+](=O)[O-])c1`, for which the GHS category is on record as 4.

`CCCCCCCCCC=CC=O` displayed a GHS category of 5.

Turning to `CCCCCCCCCCCCCCCC(=O)O`, the GHS category is 5.

`CCCCCCCN(CCCCCCC)CC(O)c1cc2ccccc2c2cc(Br)ccc12` (centres undefined): the GHS category is 5.

Compound `COc1cc(OC)nc(NC(=O)NS(=O)(=O)c2ncccc2OCC(F)(F)F)n1` gave a GHS category of 5.

For `O=S1OCC(CCl)O1` (centres undefined), the GHS category worked out at 2.

`O=c1[nH]cnc2c1ncn2[C@H]1CC[C@@H](CO)O1` yielded a GHS category of 5.

Turning to `O=C(Cc1ccccc1)C1C(=O)CC(c2ccccc2)CC1=O` (centres undefined), the GHS category is listed as 5.

In the case of `NCC(O)CCl` (centres undefined), the GHS category was determined as 4.

Regarding `CCCCOc1ccc(-c2ccc(C#N)cc2)cc1`, the GHS category turned out to be 5.

Regarding `CC(C)Oc1ccc2c(=O)c(-c3ccccc3)coc2c1`, the GHS category is recorded as 5.

Compound `CS(=O)(=O)c1cc(C(F)(F)F)ccc1C(=O)c1cnoc1C1CC1` had a GHS category of 5.

`CC(C)CCCCCCCCCCCCCCC(=O)OC(C)C` had a GHS category of 5.

For the compound `CCOc1ccc(C2(C(=O)OC(C#N)c3cccc(Oc4ccccc4)c3)CC2(Cl)Cl)cc1` (centres undefined), the GHS category was determined as 5.

Consider `C1C2CC3CC1CC(C2)C3`, for which the GHS category worked out at 5.

On to `CC1(C)S[C@@H]2[C@H](NC(=O)COc3ccccc3)C(=O)N2[C@H]1C(=O)O`, for which the GHS category is 4.

`CC(C)=CCC/C(C)=C/C(=O)OCCC(C)C`: the GHS category turned out to be 5.

`CC(C)OC[C@H]1CO[C@@](Cn2cncn2)(c2cc3cc(Cl)cc(Cl)c3o2)O1` showed a GHS category of 4.

In turn, `COc1ccc([C@@H]2CC(=O)c3c(O)cc(O[C@@H]4O[C@H](CO[C@@H]5O[C@@H](C)[C@H](O)[C@@H](O)[C@H]5O)[C@@H](O)[C@H](O)[C@H]4O)cc3O2)cc1O` displayed a GHS category of 5.

Turning to `O=S(=O)(O)c1cc(O)ccc1O`, the GHS category was 5.

Turning to `CC(C)[C@@H]1CC[C@@H](C)C[C@H]1OC(=O)Cc1ccccc1`, the GHS category was 5.

`O=C(O)c1cc2ccccc2c(N=Nc2cc(Cl)ccc2Cl)c1O` returned a GHS category of 5.

The compound `O=C1NC(=O)C(c2ccccc2)(c2ccc(O)cc2)N1` (centres undefined) had a GHS category of 5.

Regarding `CCCC(=O)OC`, the GHS category is on record as 5.

In turn, `Cc1cc(C)c(C2=C(OC(=O)CC(C)(C)C)C3(CCCC3)OC2=O)c(C)c1` yielded a GHS category of 5.

Compound `CNc1cc(OC)c(C(=O)N[C@H]2CCN(Cc3ccccc3)[C@H]2C)cc1Cl` came in with a GHS category of 4.

In turn, `CN(c1ccccc1)S(=O)(=O)c1cc(O)c2c(N=Nc3ccc(NC(=O)CCl)cc3S(=O)(=O)O)c(N)ccc2c1` gave a GHS category of 5.

As for `CCCCCCCOCC(C)CC=O` (centres undefined), the GHS category worked out at 5.

In the case of `C=CCOc1cc(Cl)ccc1C(=O)NCCN(CC)CC`, the GHS category was 5.

Take `Cc1c(Cl)ccc(O)c1Cl`: the GHS category is 5.

As for `Nc1nc(=O)c2c([nH]1)NCC(CNc1ccc(C(=O)N[C@@H](CCC(=O)O)C(=O)O)cc1)N2C=O` (some centres undefined), the GHS category is 5.

`CCCCCCCCCCCC(=O)OCC(C)(C)C=NCC1(C)CC(N=CC(C)(C)COC(=O)CCCCCCCCCCC)CC(C)(C)C1` (centres undefined) registered a GHS category of 5.

Compound `O=[N+]([O-])c1ccc2c(c1)COP(=S)(N1CCCCC1)O2` (centres undefined) had a GHS category of 3.

`CCCCC(=O)O[C@]1(C(=O)CO)[C@@H](C)C[C@H]2[C@@H]3CCC4=CC(=O)C=C[C@]4(C)[C@@]3(F)[C@@H](O)C[C@@]21C` showed a GHS category of 5.

Compound `CCOC(=O)/C=C(C)/C=C/CC(C)CCCC(C)C` (centres undefined) came in with a GHS category of 5.

`Cc1cc(C)c(Nc2ccc(Nc3c(C)cc(C)cc3C)c3c2C(=O)c2ccccc2C3=O)c(C)c1` came in with a GHS category of 5.

In turn, `Cc1ccccc1N1C(=O)c2cc(S(N)(=O)=O)c(Cl)cc2NC1C` (centres undefined) displayed a GHS category of 5.

With `CCn1cc(C(=O)O)c(=O)c2cnc(N3CCCC3)nc21`, the GHS category turned out to be 5.

`CCCCCCCCCCCCCCCCOC(=O)OOC(=O)OCCCCCCCCCCCCCCCC` returned a GHS category of 5.

Compound `O=C1CCc2c(cccc2OCCCN2CCC(O)(c3ccccc3)CC2)N1` returned a GHS category of 4.

`CCOc1ccc(Cc2cc([C@@H]3O[C@H](COC(C)=O)[C@@H](OC(C)=O)[C@H](OC(C)=O)[C@H]3OC(C)=O)ccc2Cl)cc1` registered a GHS category of 5.

Take `CN1CC(c2ccon2)CC2c3cccc4[nH]cc(c34)CC21` (centres undefined): the GHS category was 4.

`CCOC(=O)c1c(CSc2ccccc2)n(C)c2cc(Br)c(O)c(CN(C)C)c12` returned a GHS category of 5.

With `CCSC(=O)/C=C(C)/C=C/CC(C)CCCC(C)(C)OC` (centres undefined), the GHS category was 5.
